Laboratory results taken from ChEMBL document CHEMBL4765421, “Synthesis of natural 3'-Prenylchalconaringenin and biological evaluation of ameliorating non-alcoholic fatty liver disease and metabolic syndrome” (Eur J Med Chem, 2020).
The source made the active and inactive calls. The calls are words filed in the database; no cut-off is given here.

Experiments:
Mus musculus [1] = experiment: In vivo effect on PPAR signaling in tyloxapol-induced Kunming mouse model of hyperlipidemia assessed as increase in PPARalpha expression in liver at 50 to 100 mg/kg, po measured after 24 hrs by Western blot analysis; assay type: functional, organism-based; details: dose 50-100 mg/kg
Mus musculus [2] = experiment: In vivo induction of AMPK in tyloxapol-induced Kunming mouse model of hyperlipidemia assessed as increase in AKT phosphorylation in white adipose tissue at 50 to 100 mg/kg, po measured after 24 hrs by Western blot analysis; assay type: functional, organism-based; details: dose 50-100 mg/kg
3T3-L1 [3] = experiment: Hypolipidemic activity in mouse 3T3-L1 preadipocytes assessed as reduction in lipid content at 5 uM by Oil Red O staining based assay relative to control; assay type: functional; parameters: scale not given: the % may be the effect or the level left
HepG2 [4] = experiment: Cytotoxicity against human HepG2 cells assessed as reduction in cell viability at 10 to 20 uM by MTT assay; assay type: cell-based; details: hepg2, 20 µM, dose 10-20 µM
Mus musculus [5] = experiment: Hypolipidemic activity in tyloxapol-induced Kunming mouse model of hyperlipidemia assessed as reduction in serum ALT level administered orally measured after 24 hrs; assay type: functional, organism-based
3T3-L1 [6] = experiment: Hypolipidemic activity in mouse 3T3-L1 mature adipocytes assessed as reduction in triglyceride content; assay type: functional, cell-based
Mus musculus [7] = experiment: In vivo induction of AMPK in tyloxapol-induced Kunming mouse model of hyperlipidemia assessed as decrease in SREBP1-C expression in white adipose tissue at 50 to 100 mg/kg, po measured after 24 hrs by Western blot analysis; assay type: functional, organism-based; details: dose 50-100 mg/kg
Mus musculus [8] = experiment: Hypolipidemic activity in tyloxapol-induced Kunming mouse model of hyperlipidemia assessed as reduction in serum total cholesterol level administered orally measured after 24 hrs; assay type: functional, organism-based
Mus musculus [9] = experiment: Hypolipidemic activity in tyloxapol-induced Kunming mouse model of hyperlipidemia assessed as reduction in serum LDL level administered orally measured after 24 hrs; assay type: functional, organism-based
Mus musculus [10] = experiment: Hypolipidemic activity in tyloxapol-induced Kunming mouse model of hyperlipidemia assessed as reduction in liver triglyceride level administered orally measured after 24 hrs; assay type: functional, organism-based
HepG2 [11] = experiment: Activation of AMPK in oleic, palmitic, linoleic and arachidonic acid 29:47:18:6 (v/v)-induced human HepG2 cells assessed as increase in ACC phosphorylation at 1 uM by Western blot analysis relative to control
Mus musculus [12] = experiment: Hypolipidemic activity in tyloxapol-induced Kunming mouse model of hyperlipidemia assessed as spleen index at 50 mg/kg, po measured after 24 hrs (reference value: 3.87 +/- 0.05); assay type: functional
Mus musculus [13] = experiment: Hypolipidemic activity in tyloxapol-induced Kunming mouse model of hyperlipidemia assessed as kidney index at 50 mg/kg, po measured after 24 hrs (reference value: 11.20 +/- 0.58); assay type: functional
Mus musculus [14] = experiment: Hypolipidemic activity in tyloxapol-induced Kunming mouse model of hyperlipidemia assessed as perirenal white adipose tissue index at 100 mg/kg, po measured after 24 hrs (reference value: 18.14 +/- 1.44); assay type: functional
Mus musculus [15] = experiment: In vivo induction of AMPK in tyloxapol-induced Kunming mouse model of hyperlipidemia assessed as decrease in FAS expression in liver at 50 to 100 mg/kg, po measured after 24 hrs by Western blot analysis; assay type: functional, organism-based; details: dose 50-100 mg/kg
Mus musculus [16] = experiment: In vivo induction of AMPK in tyloxapol-induced Kunming mouse model of hyperlipidemia assessed as increase in ACC phosphorylation in white adipose tissue at 50 to 100 mg/kg, po measured after 24 hrs by Western blot analysis; assay type: functional, organism-based; details: dose 50-100 mg/kg
Mus musculus [17] = experiment: Hypolipidemic activity in tyloxapol-induced Kunming mouse model of hyperlipidemia assessed as reduction in liver MPO level at 50 to 100 mg/kg, po measured after 24 hrs; assay type: functional, organism-based; details: dose 50-100 mg/kg
HepG2 [18] = experiment: Hypolipidemic activity in oleic, palmitic, linoleic and arachidonic acid 29:47:18:6 (v/v)-induced hyperlipidemia in human HepG2 cells assessed as reduction in lipid content at 10 uM by Oil Red O staining based assay relative to control; assay type: functional; parameters: scale not given: the % may be the effect or the level left
Mus musculus [19] = experiment: In vivo induction of AMPK in tyloxapol-induced Kunming mouse model of hyperlipidemia assessed as increase in AKT phosphorylation in liver at 50 to 100 mg/kg, po measured after 24 hrs by Western blot analysis; assay type: functional, organism-based; details: dose 50-100 mg/kg
3T3-L1 [20] = experiment: Hypolipidemic activity in mouse 3T3-L1 mature adipocytes assessed as reduction in lipid content at 5 uM by Oil Red O staining based assay relative to control; assay type: functional; parameters: scale not given: the % may be the effect or the level left
Mus musculus [21] = experiment: In vivo effect on PPAR signaling in tyloxapol-induced Kunming mouse model of hyperlipidemia assessed as increase in PPARalpha expression in white adipose tissue at 50 to 100 mg/kg, po measured after 24 hrs by Western blot analysis; assay type: functional, organism-based; details: dose 50-100 mg/kg
Mus musculus [22] = experiment: In vivo effect on PPAR signaling in tyloxapol-induced Kunming mouse model of hyperlipidemia assessed as increase in mTOR phosphorylation in liver administered orally measured after 24 hrs by Western blot analysis; assay type: functional, organism-based
Mus musculus [23] = experiment: Hypolipidemic activity in tyloxapol-induced Kunming mouse model of hyperlipidemia assessed as reduction in serum triglyceride level administered orally measured after 24 hrs; assay type: functional, organism-based
Mus musculus [24] = experiment: In vivo induction of AMPK in tyloxapol-induced Kunming mouse model of hyperlipidemia assessed as increase in AMPKalpha phosphorylation in white adipose tissue at 50 to 100 mg/kg, po measured after 24 hrs by Western blot analysis; assay type: functional, organism-based; details: dose 50-100 mg/kg
Mus musculus [25] = experiment: Hypolipidemic activity in tyloxapol-induced Kunming mouse model of hyperlipidemia assessed as reduction in liver ALT level administered orally measured after 24 hrs; assay type: functional, organism-based
HepG2 [26] = experiment: Hypolipidemic activity in oleic, palmitic, linoleic and arachidonic acid 29:47:18:6 (v/v)-induced hyperlipidemia in human HepG2 cells assessed as reduction in lipid content at 7.5 uM by Oil Red O staining based assay relative to control; assay type: functional; parameters: scale not given: the % may be the effect or the level left
3T3-L1 [27] = experiment: Hypolipidemic activity in mouse 3T3-L1 preadipocytes assessed as reduction in lipid content at 10 uM by Oil Red O staining based assay relative to control; assay type: functional; parameters: scale not given: the % may be the effect or the level left
3T3-L1 [28] = experiment: Hypolipidemic activity in mouse 3T3-L1 preadipocytes assessed as reduction in lipid content at 15 uM by Oil Red O staining based assay relative to control; assay type: functional; parameters: scale not given: the % may be the effect or the level left
Mus musculus [29] = experiment: Hypolipidemic activity in tyloxapol-induced Kunming mouse model of hyperlipidemia assessed as reduction in serum AST level administered orally measured after 24 hrs; assay type: functional, organism-based
Mus musculus [30] = experiment: In vivo induction of AMPK in tyloxapol-induced Kunming mouse model of hyperlipidemia assessed as increase in ACC phosphorylation in liver at 50 to 100 mg/kg, po measured after 24 hrs by Western blot analysis; assay type: functional, organism-based; details: dose 50-100 mg/kg
Mus musculus [31] = experiment: In vivo effect on PPAR signaling in tyloxapol-induced Kunming mouse model of hyperlipidemia assessed as decrease in PPARgamma expression in liver at 50 to 100 mg/kg, po measured after 24 hrs by Western blot analysis; assay type: functional, organism-based; details: dose 50-100 mg/kg
3T3-L1 [32] = experiment: Activation of AMPK in mouse 3T3-L1 preadipocytes assessed as increase in AMPK phosphorylation at 0.1 to 15 uM by Western blot analysis; assay type: cell-based; details: filed as activator, dose 0.1-15 µM
Mus musculus [33] = experiment: Hypolipidemic activity in tyloxapol-induced Kunming mouse model of hyperlipidemia assessed as increase in serum SOD level at 100 mg/kg, po measured after 24 hrs; assay type: functional, organism-based
Mus musculus [34] = experiment: Hypolipidemic activity in tyloxapol-induced Kunming mouse model of hyperlipidemia assessed as epididymis white adipose tissue index at 100 mg/kg, po measured after 24 hrs (reference value: 23.43 +/- 3.10); assay type: functional

SMILES: CC(C)=CCC/C(C)=C/Cc1c(O)cc(O)c(C(=O)/C=C/c2ccc(O)cc2)c1O
- Activity (Mus musculus [1]): Active
- Activity (Mus musculus [2]): Active
- Activity (3T3-L1 [3]): 49.29%
- Activity (HepG2 [4]): Non-Toxic
- Activity (Mus musculus [5]): Dose-dependent effect
- Activity (3T3-L1 [6]): Dose-dependent effect
- Activity (Mus musculus [7]): Active
- Activity (Mus musculus [8]): Dose-dependent effect
- Activity (Mus musculus [9]): Dose-dependent effect
- Activity (Mus musculus [10]): Dose-dependent effect
- Activity (HepG2 [11]): 31.7%
- Activity_index (Mus musculus [12]): 2.8
- Activity_index (Mus musculus [13]): 9.46
- Activity_index (Mus musculus [14]): 9.83
- Activity (Mus musculus [15]): Active
- Activity (Mus musculus [16]): Active
- Activity (Mus musculus [17]): Active
- Activity (HepG2 [18]): 54.38%
- Activity (Mus musculus [19]): Active
- Activity (3T3-L1 [20]): 71.33%
- Activity (Mus musculus [21]): Active
- Activity (Mus musculus [22]): Dose-dependent effect
- Activity (Mus musculus [23]): Dose-dependent effect
- Activity (Mus musculus [24]): Active
- Activity (Mus musculus [25]): Dose-dependent effect
- Activity (HepG2 [26]): 43.86%
- Activity (3T3-L1 [27]): 67.87%
- Activity (3T3-L1 [28]): 83.91%
- Activity (Mus musculus [29]): Dose-dependent effect
- Activity (Mus musculus [30]): Active
- Activity (Mus musculus [31]): Active
- Activity (3T3-L1 [32]): Active
- Activity (Mus musculus [33]): Active
- Activity_index (Mus musculus [34]): 12.35
